Assay results: patent US9951035B2, “Selective matrix metalloproteinase inhibitors” (University of Notre Dame du Lac, priority 2014, dated 2018)
Values joined by “and” are separate entries in the source; they are usually repeats but may differ in a detail not shown here. Identical values can stand only once.

Columns and labels:
ADAM9 = ADAM9 (Homo sapiens (Human), UniProt Q13443); experiment: Enzyme inhibition studies, ADAM9; format: biochemical; conditions: at 20 μM; read-out: Inhibition
ADAM10 = ADAM10 (Homo sapiens (Human), UniProt O14672); experiment: Enzyme inhibition studies, ADAM10; format: biochemical; conditions: at 20 μM; read-out: Inhibition
Chain of ADAM10 (O14672 214-672): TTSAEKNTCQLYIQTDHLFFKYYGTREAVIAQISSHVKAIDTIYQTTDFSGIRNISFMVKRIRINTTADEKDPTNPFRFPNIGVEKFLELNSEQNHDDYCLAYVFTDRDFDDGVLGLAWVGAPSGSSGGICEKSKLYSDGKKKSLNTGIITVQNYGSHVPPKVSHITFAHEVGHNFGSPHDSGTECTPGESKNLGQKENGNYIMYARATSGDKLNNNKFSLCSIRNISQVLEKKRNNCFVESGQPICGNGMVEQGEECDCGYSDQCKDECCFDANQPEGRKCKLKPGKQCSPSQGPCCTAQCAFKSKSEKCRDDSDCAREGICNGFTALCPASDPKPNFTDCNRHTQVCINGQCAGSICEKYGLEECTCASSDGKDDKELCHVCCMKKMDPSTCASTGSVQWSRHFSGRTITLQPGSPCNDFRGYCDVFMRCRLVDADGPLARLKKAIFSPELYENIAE

MMP-9 [1] = target: T1, MMP-9 (Homo sapiens (Human), UniProt P14780); experiment: Enzyme inhibition studies, MMP-9 catalytic domain; format: biochemical; conditions: read-out: MMP-9 Ki
T1 sequence (P14780 107-444): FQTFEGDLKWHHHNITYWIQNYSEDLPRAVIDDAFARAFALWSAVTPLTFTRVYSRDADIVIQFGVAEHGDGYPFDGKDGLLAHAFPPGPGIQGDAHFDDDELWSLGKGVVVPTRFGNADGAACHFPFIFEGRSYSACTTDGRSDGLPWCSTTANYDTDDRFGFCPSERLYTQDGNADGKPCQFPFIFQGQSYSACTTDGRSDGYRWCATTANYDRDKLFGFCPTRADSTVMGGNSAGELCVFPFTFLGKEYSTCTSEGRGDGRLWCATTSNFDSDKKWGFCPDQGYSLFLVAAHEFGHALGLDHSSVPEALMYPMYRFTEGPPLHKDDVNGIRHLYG

MMP-9 [2] = target: T1, MMP-9; conditions: literature / previously reported; cited from earlier work
MMP-2 = MMP-2 (Homo sapiens (Human), UniProt P08253); conditions: literature / previously reported; cited from earlier work
Chain of MMP-2 (P08253 110-660): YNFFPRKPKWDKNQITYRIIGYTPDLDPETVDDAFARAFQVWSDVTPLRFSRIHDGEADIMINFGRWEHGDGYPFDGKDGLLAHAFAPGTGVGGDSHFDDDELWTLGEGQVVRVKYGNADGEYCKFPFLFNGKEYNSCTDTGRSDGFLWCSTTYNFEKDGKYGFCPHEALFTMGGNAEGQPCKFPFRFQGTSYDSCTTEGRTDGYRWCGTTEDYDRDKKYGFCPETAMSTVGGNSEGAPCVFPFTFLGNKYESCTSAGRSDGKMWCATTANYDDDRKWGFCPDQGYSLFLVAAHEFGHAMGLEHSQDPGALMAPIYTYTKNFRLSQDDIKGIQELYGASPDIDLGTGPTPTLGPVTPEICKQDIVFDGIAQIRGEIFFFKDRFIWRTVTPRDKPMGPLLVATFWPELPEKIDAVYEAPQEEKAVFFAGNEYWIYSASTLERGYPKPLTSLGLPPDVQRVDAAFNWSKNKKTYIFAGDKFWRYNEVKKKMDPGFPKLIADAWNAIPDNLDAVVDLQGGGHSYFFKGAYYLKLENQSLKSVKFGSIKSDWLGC

Chain of ADAM9 (Q13443 206-697): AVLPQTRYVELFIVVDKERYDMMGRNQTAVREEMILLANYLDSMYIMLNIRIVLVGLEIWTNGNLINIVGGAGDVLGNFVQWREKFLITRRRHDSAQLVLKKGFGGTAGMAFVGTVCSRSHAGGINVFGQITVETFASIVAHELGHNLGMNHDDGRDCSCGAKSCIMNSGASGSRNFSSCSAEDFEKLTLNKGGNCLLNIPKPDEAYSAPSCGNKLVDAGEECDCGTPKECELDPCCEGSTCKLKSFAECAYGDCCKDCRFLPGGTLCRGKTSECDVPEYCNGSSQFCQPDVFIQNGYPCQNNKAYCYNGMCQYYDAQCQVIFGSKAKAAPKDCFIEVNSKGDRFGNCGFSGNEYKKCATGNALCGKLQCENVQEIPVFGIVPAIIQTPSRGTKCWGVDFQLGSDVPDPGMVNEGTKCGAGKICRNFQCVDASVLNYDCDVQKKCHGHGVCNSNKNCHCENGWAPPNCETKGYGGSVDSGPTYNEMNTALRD

## O=S(=O)(CC1CS1)c1ccc(Oc2ccccc2)cc1 (centres unmarked) [Compound 1, reference compound]
ADAM9
  inhibition at 20 µM: 36%
ADAM10
  inhibition at 20 µM: 34%

## COC(=O)Nc1ccc(Oc2ccc(S(=O)(=O)CC3CS3)cc2)cc1 (centres unmarked) [ND-380]
MMP-9 [1]
  Ki: 180 ± 30 nM

## TIMP-1: tissue inhibitor of metalloproteinase 1, protein inhibitor of MMPs
MMP-9 [2]
  residence time bound to MMP-9: 8 min
MMP-2
  residence time bound to MMP-2: 7 min and 6.9 min
